Laboratory results: patent US20250197393A1, “INTEGRIN INHIBITOR AND USES THEREOF” (Pliant Therapeutics, Inc., priority 2023, published 2025)

Key:
Assay type in all cases: physicochemical
[1] = Hygroscopicity by dynamic vapor sorption (DVS)
Protocol: Dynamic vapor sorption of Pattern A was studied using a Surface Measurement Systems (SMS) Intrinsic instrument. Total gas flow was 200 sccm. The oven temperature was 25° C. Water was used as the solvent, in a cycle of 40-95-0-95-40% RH. The stage step was 10% RH and equilibrium was within 0.002 dm/dt (%/min) (minimum dm/dt stability duration: 60 min; maximum dm/dt stage time: 360 min). The sample mass was about 5-50 mg.
The water sorption and desorption behavior of (S)-4-((2-methoxyethyl)(4-(5,6,7,8-tetrahydro-1,8-naphthyridin-2-yl)butyl)amino)-2-(quinazolin-4-ylamino)butanoic acid L-tartaric acid cocrystal Pattern A was investigated by DVS at 25° C. with a cycle of 40-95-0-95-40% RH. XRPD was measured after the DVS test to determine form change. […] It dehydrated in 10% RH and below.

[2] = Wet granulation simulation
Protocol: Water or ethanol was added dropwise to about 20 mg of (S)-4-((2-methoxyethyl)(4-(5,6,7,8-tetrahydro-1,8-naphthyridin-2-yl)butyl)amino)-2-(quinazolin-4-ylamino)butanoic acid L-tartaric acid cocrystal Pattern A until the sample was wetted sufficiently. The wet sample was ground gently using a mortar and pestle. Post granulation sample was dried under ambient conditions for 30 min. The potential form change and degree of crystallinity were evaluated by XRPD.

[3] = Dry grinding; settings: ground manually with mortar and pestle for 3 min
Protocol: (§1) About 20 mg of (S)-4-((2-methoxyethyl)(4-(5,6,7,8-tetrahydro-1,8-naphthyridin-2-yl)butyl)amino)-2-(quinazolin-4-ylamino)butanoic acid L-tartaric acid cocrystal Pattern A was ground manually with a mortar and a pestle for 3 min. Potential form change and degree of crystallinity were evaluated by XRPD.

[4] = Bulk stability of solid under temperature/humidity stress (HPLC, appearance, XRPD); settings: for purity decrease: listed as L-tartaric acid cocrystal Pattern A; for Bulk (XRPD) / Bulk (HPLC) purity, 316 nm: Solid state
Protocol: Bulk stability of (S)-4-((2-methoxyethyl)(4-(5,6,7,8-tetrahydro-1,8-naphthyridin-2-yl)butyl)amino)-2-(quinazolin-4-ylamino)butanoic acid L-tartaric acid cocrystal Pattern A was evaluated at 25° C./92.5% RH in an open container, at 40° C./75% RH in an open container, and at 60° C. in a closed container over 1 week and 4 weeks.
However, it became deliquescent after being stressed at 25° C./92.5% RH in an open container and at 40° C./75% RH in an open container after 1 week.

[5] = Compression study; settings: 5 minutes; for XRPD after compression: hydraulic press
Protocol: as §1, with “compressed for 5 minutes under 2 MPa, 5 MPa and 10 MPa” for “ground manually”, “hydraulic press.” for “mortar and a pestle for 3 min.”

[6] = Water activity experiments in MeOH/water (relative stability of hydrate Pattern A and hydrate Pattern B); settings: for water activity (a.w.) at which the pattern was obtained: methanol/water
Protocol: The relative stability of the hydrate Pattern A and the hydrate Pattern B was investigated using water activity experiments in MeOH/water systems. About 5 mg of (S)-4-((2-methoxyethyl)(4-(5,6,7,8-tetrahydro-1,8-naphthyridin-2-yl)butyl)amino)-2-(quinazolin-4-ylamino)butanoic acid L-tartaric acid cocrystal Pattern A and 5 mg of (S)-4-((2-methoxyethyl)(4-(5,6,7,8-tetrahydro-1,8-naphthyridin-2-yl)butyl)amino)-2-(quinazolin-4-ylamino)butanoic acid L-tartaric acid cocrystal Pattern B were added to 0.1-0.5 mL saturated solutions of the methanol/water system. Obtained suspensions were stirred at 5° C., 25° C. and 50° C. for up to 21 days, respectively. Solid parts (wet cakes) were isolated by centrifugation filtration and investigated by XRPD.

[7] = 10% relative humidity at 25° C.
[8] = 20% relative humidity at 25° C.
[9] = 30% relative humidity at 25° C.
[10] = 40% relative humidity at 25° C.
[11] = 50% relative humidity at 25° C.
[12] = 60% relative humidity at 25° C.
[13] = 70% relative humidity at 25° C.
[14] = 80% relative humidity at 25° C.
[15] = 90% relative humidity at 25° C.
[16] = 95% relative humidity at 25° C.
[17] = 40° C./75% RH, open container, 4 weeks
[18] = 60° C., closed container, 4 weeks, listed as L-Tartaric acid cocrystal Pattern A, hydrate

- 1st desorp. Weight % change ([1]; 0% relative humidity at 25° C.): 0.0%
- 2nd sorp. Weight % change ([1]; 0% relative humidity at 25° C.): 0.0%
- 1st desorp. Weight % change [1, 7]: 5.2%
- 2nd sorp. Weight % change [1, 7]: 4.7%
- 1st desorp. Weight % change [1, 8]: 7.4%
- 2nd sorp. Weight % change [1, 8]: 7.1%
- 1st desorp. Weight % change [1, 9]: 8.3%
- 2nd sorp. Weight % change [1, 9]: 8.0%
- 1st desorp. Weight % change [1, 10]: 8.9%
- 1st sorp. Weight % change [1, 10]: 8.5%
- 2nd desorp. Weight % change [1, 10]: 8.9%
- 2nd sorp. Weight % change [1, 10]: 8.7%
- 1st desorp. Weight % change [1, 11]: 9.4%
- 1st sorp. Weight % change [1, 11]: 9.0%
- 2nd desorp. Weight % change [1, 11]: 9.4%
- 2nd sorp. Weight % change [1, 11]: 9.2%
- 1st desorp. Weight % change [1, 12]: 9.8%
- 1st sorp. Weight % change [1, 12]: 9.6%
- 2nd desorp. Weight % change [1, 12]: 9.9%
- 2nd sorp. Weight % change [1, 12]: 9.7%
- 1st desorp. Weight % change [1, 13]: 10.4%
- 1st sorp. Weight % change [1, 13]: 10.1%
- 2nd desorp. Weight % change [1, 13]: 10.4%
- 2nd sorp. Weight % change [1, 13]: 10.2%
- 1st desorp. Weight % change [1, 14]: 11.1%
- 1st sorp. Weight % change [1, 14]: 10.7%
- 2nd desorp. Weight % change [1, 14]: 11.1%
- 2nd sorp. Weight % change [1, 14]: 10.9%
- 1st desorp. Weight % change [1, 15]: 12.6%
- 1st sorp. Weight % change [1, 15]: 12.2%
- 2nd desorp. Weight % change [1, 15]: 12.6%
- 2nd sorp. Weight % change [1, 15]: 12.1%
- 1st desorp. Weight % change [1, 16]: 18.7%
- 1st sorp. Weight % change [1, 16]: 18.7%
- 2nd desorp. Weight % change [1, 16]: 16.1%
- 2nd sorp. Weight % change [1, 16]: 16.1%
- XRPD following the DVS experiments ([1]; after cycle 40-95-0-95-40% RH, 25° C.): no form change
- hygroscopicity ([1]; at 70% RH and below, 25° C.): slightly hygroscopic
- water uptake ([1]; from 40% RH to 70% RH, 25° C.): about 1.6%
- water uptake ([1]; from 80% RH to 95% RH, 25° C.): about 8.0%
- behaviour at low humidity ([1]; in 10% RH and below, 25° C.): dehydrated
- hygroscopicity ([1]; in 80% RH and above, 25° C.): moderately hygroscopic
- water loss on dehydration ([1]; relative humidity below 10% RH, water absorbed back at 10% RH and above): about 5%
- XRPD after wet granulation ([2]; Granulation solvent Ethanol): Pattern A
- Comments (crystallinity after wet granulation) ([2]; Granulation solvent Water): Slight decrease in crystallinity
- XRPD after wet granulation ([2]; Granulation solvent Water): Pattern A
- degree of crystallinity after dry grinding (XRPD) [3]: no obvious change in crystallinity
- form change after dry grinding (XRPD) [3]: No form change
- purity decrease ([4]; 25° C./92.5% RH in an open container, 4 weeks): 0.9%
- physical form after stress ([4]; 25° C./92.5% RH open, 40° C./75% RH open and 60° C. closed container, four weeks): remained the same form
- physical stability ([4]; 25° C./92.5% RH open, 40° C./75% RH open and 60° C. closed container, over 4 weeks): physically stable
- purity decrease ([4]; 60° C. in a closed container, 4 weeks): 0.9%
- Bulk (XRPD) ([4]; 25° C./92.5% RH, open container, 1 week): No form change
- Bulk (HPLC) purity, 316 nm ([4]; 25° C./92.5% RH, open container, 1 week, listed as L-Tartaric acid cocrystal Pattern A, hydrate): 99.2%
- Bulk (XRPD) ([4]; 25° C./92.5% RH, open container, 4 weeks): No form change
- Bulk (HPLC) purity, 316 nm ([4]; 25° C./92.5% RH, open container, 4 weeks, listed as L-Tartaric acid cocrystal Pattern A, hydrate): 98.5%
- Bulk (XRPD) ([4]; 40° C./75% RH, open container, 1 week): No form change
- Bulk (HPLC) purity, 316 nm ([4]; 40° C./75% RH, open container, 1 week, listed as L-Tartaric acid cocrystal Pattern A, hydrate): 98.9%
- Bulk (HPLC) purity, 316 nm [4, 17]: 97.3%
- Bulk (XRPD) [4, 17]: No form change
- Bulk (XRPD) ([4]; 60° C., closed container, 1 week): No form change
- Bulk (HPLC) purity, 316 nm ([4]; 60° C., closed container, 1 week, listed as L-Tartaric acid cocrystal Pattern A, hydrate): 99.1%
- Bulk (HPLC) purity, 316 nm [4, 18]: 98.5%
- Bulk (XRPD) [4, 18]: No form change
- stability under stress conditions ([4]; open container, 25° C. and 92.5% relative humidity and 40° C. and 75% RH, up to four weeks): stable
- bulk stability relative to the phosphate salt ([4]; various temperatures and relative humidities (BS1, BS2, BS3)): higher stability
- degree of crystallinity after compression (XRPD) ([5]; 2 MPa, 5 MPa and 10 MPa): slight decrease in crystallinity
- form change after compression (XRPD) ([5]; 2 MPa, 5 MPa and 10 MPa): no form change
- XRPD after compression ([5]; 2 MPa): Pattern A
- XRPD after compression ([5]; 5 MPa): Pattern A
- XRPD after compression ([5]; 10 MPa): Pattern A
- thermodynamic stability based on water activity experiments ([6]; 0, 0.2, 0.4, 0.6, 0.8 and 1.0 water activity): thermodynamically stable
- water activity (a.w.) at which the pattern was obtained ([6]; 5° C.): ≤ 0.8
- water activity (a.w.) at which the pattern was obtained ([6]; 25° C.): ≤ 0.8
- water activity (a.w.) at which the pattern was obtained ([6]; 50° C.): ≤ 1.0
Structure (SMILES): COCCN(CCCCc1ccc2c(n1)NCCC2)CC[C@H](Nc1ncnc2ccccc12)C(=O)O [Pattern A, (S)-4-((2-methoxyethyl)(4-(5,6,7,8-tetrahydro-1,8-naphthyridin-2-yl)butyl)amino)-2-(quinazolin-4-ylamino)butanoic acid]
